Results as given in PubChem BioAssay (NCI).
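Growth conditions: 96-well plates. Treatment: test compound, 48 hours, 5 concentrations. Analysis: linear interpolation between bracketing concentrations; unreached endpoints set to highest concentration. TGI: concentration producing complete growth inhibition.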

system: HCT-116 colon; test: NCI tumour cell line growth inhibition, 48 h

| Compound | TGI [µM] |
| --- | --- |
| COc1ccc2c(c1)CN1C(=N2)CSC1c1ccccc1Cl (configuration not stated) | 33.1 |
| CC1(CNCc2ccccc2)CC(CCc2ccccc2)N(C(=O)c2ccc([N+](=O)[O-])cc2)C1Cc1ccc(O)cc1 (configuration not stated) | 23.1 |
| Cc1cc2[nH]c3c(C#N)c4c(c(=O)n3c2cc1C)CCCC4 | > 100 |
| O=C1CSC(c2cccs2)N1c1nc2cc3sc(N4C(=O)CSC4c4cccs4)nc3cc2s1 (configuration not stated) | > 50 |
| Cc1cn(C(C)OCCN2C(=O)c3ccccc3C2=O)c(=O)[nH]c1=O (configuration not stated) | > 100 |
| CCOC(=O)C1=C(OC(OCC)C(CC)[Se]c2ccccc2)CCCC1 (configuration not stated) | 45 |
| NC(N)=NS(=O)(=O)c1ccc(NC(=O)c2ccc3nc4ccccc4c(Nc4ccc(S(=O)(=O)N=C(N)N)cc4)c3c2)cc1 | > 100 |
| COc1ccc2cc(NC(=O)N/N=C\c3ccc(Cl)cc3)ccc2c1 | > 100 |
| Brc1cc2nn(-c3ccccc3)nc2c2nonc12 | > 100 |
| CCOC(=O)C(NC(=O)CC(C)C)(N1CCN(c2cc3c(cc2F)c(=O)c(C(=O)O)cn3C2CC2)CC1)C(F)(F)F (configuration not stated) | 56.2 |
| Cc1cn([C@@H]2C[C@H]2CO)c(=O)[nH]c1=O | > 100 |
| c1ccc(/C(=N/Nc2ccccn2)c2ncccn2)cc1 | > 100 |
| O=C1C=CC(=O)c2c(O)c(NCCc3ccc(O)cc3)c(Cl)c(O)c21 | > 10 |
| COc1cc(I)c2c3c1OC1C34CCN(C)C(C2)C4=CC(I)C1(OC)OC (configuration not stated) | 60.6 |
| NC(=O)C(=CNC(=S)c1ccncc1)C(N)=O | > 100 |
| O=c1c(-c2ccc(Cl)cc2)nnc2n(Cc3ccccc3)c3ccccc3n12 | > 100 |

| Compound | TGI [µM] |
| --- | --- |
| Nc1c(C(=O)c2ccc(Cl)cc2)[nH]c(NCc2ccccc2)c1C(=S)Nc1ccccc1 | 3.31 |
| CCC(C)C(=O)OC1CC2(C)C(c3ccoc3)OC(=O)CC23OC2(C)OC34C(OC(=O)C(C)C)C3(O)C(OC(=O)C5(C)OC5C)C5(C)CC3(O)C(C)(C5CC(=O)OC)C14O2 (configuration not stated) | > 100 |
| c1ccc2c3c(c(N4CCOCC4)nc2c1)CCCC3 | > 100 |
| O=C(Nc1ccccc1C(=O)NCCCO)/C(=C/c1ccccc1O)NC(=O)c1ccccc1 | > 75.8 |
| FC(F)(F)c1ccc2nc3n(c2c1)C(c1c(Cl)cccc1Cl)SC3 (configuration not stated) | 22.4 |
| CCC(=O)Oc1c2ccsc2c(OC(=O)CC)c2ccsc12 | 1.79 |
| NC(=O)c1cc2ccccc2o/c1=N/O | > 100 |
| COC(=O)C1CC2(c3ccccc3)C(=O)c3ccccc3N2O1 (configuration not stated) | > 100 |
| COc1cc2c(/C=C3/C(=O)Nc4ccccc43)c(Cl)[nH]c2cc1C | 11 |
| O=C(O)C(CO)NC(=O)n1c2ccccc2c2ccccc21 (configuration not stated) | > 100 |
| Brc1ccc2c(-c3csc(-c4c[nH]c5ccc(Br)cc45)n3)c[nH]c2c1 | 13.9 |
| Cc1c2ncccc2cc2oc3ccccc3c(=O)c12 | > 100 |
| CC1(C)OCC2OC3([C@H]4OC(C)(C)O[C@@H]4CO)OC(C)(C)OC3C2O1 (some centres not stated) | > 100 |
| O=C(Nc1cccc(O)c1)C(=O)C(C(=O)c1ccccc1F)C1OC(=O)c2ccccc21 (configuration not stated) | 33.9 |
| Clc1ccc(OCc2nnc(CCCCCCCCc3nnc(COc4ccc(Cl)cc4)n3Nc3ccccc3)n2Nc2ccccc2)cc1 | 24.2 |

system: OVCAR-8 ovarian; test: NCI tumour cell line growth inhibition, 48 h

| Compound | TGI [µM] |
| --- | --- |
| COc1ccc2c(c1)CN1C(=N2)CSC1c1ccccc1Cl (configuration not stated) | 43.2 |
| CC1(CNCc2ccccc2)CC(CCc2ccccc2)N(C(=O)c2ccc([N+](=O)[O-])cc2)C1Cc1ccc(O)cc1 (configuration not stated) | 32 |
| Cc1cc2[nH]c3c(C#N)c4c(c(=O)n3c2cc1C)CCCC4 | > 100 |
| O=C1CSC(c2cccs2)N1c1nc2cc3sc(N4C(=O)CSC4c4cccs4)nc3cc2s1 (configuration not stated) | > 50 |
| Cc1cn(C(C)OCCN2C(=O)c3ccccc3C2=O)c(=O)[nH]c1=O (configuration not stated) | > 100 |
| CCOC(=O)C1=C(OC(OCC)C(CC)[Se]c2ccccc2)CCCC1 (configuration not stated) | 42.1 |
| NC(N)=NS(=O)(=O)c1ccc(NC(=O)c2ccc3nc4ccccc4c(Nc4ccc(S(=O)(=O)N=C(N)N)cc4)c3c2)cc1 | > 100 |
| COc1ccc2cc(NC(=O)N/N=C\c3ccc(Cl)cc3)ccc2c1 | > 100 |
| Brc1cc2nn(-c3ccccc3)nc2c2nonc12 | > 100 |
| CCOC(=O)C(NC(=O)CC(C)C)(N1CCN(c2cc3c(cc2F)c(=O)c(C(=O)O)cn3C2CC2)CC1)C(F)(F)F (configuration not stated) | > 100 |
| Cc1cn([C@@H]2C[C@H]2CO)c(=O)[nH]c1=O | > 100 |
| c1ccc(/C(=N/Nc2ccccn2)c2ncccn2)cc1 | 3.43 |
| O=C1C=CC(=O)c2c(O)c(NCCc3ccc(O)cc3)c(Cl)c(O)c21 | > 10 |
| COc1cc(I)c2c3c1OC1C34CCN(C)C(C2)C4=CC(I)C1(OC)OC (configuration not stated) | 53 |
| NC(=O)C(=CNC(=S)c1ccncc1)C(N)=O | > 100 |
| O=c1c(-c2ccc(Cl)cc2)nnc2n(Cc3ccccc3)c3ccccc3n12 | > 100 |

| Compound | TGI [µM] |
| --- | --- |
| Nc1c(C(=O)c2ccc(Cl)cc2)[nH]c(NCc2ccccc2)c1C(=S)Nc1ccccc1 | 3.37 |
| CCC(C)C(=O)OC1CC2(C)C(c3ccoc3)OC(=O)CC23OC2(C)OC34C(OC(=O)C(C)C)C3(O)C(OC(=O)C5(C)OC5C)C5(C)CC3(O)C(C)(C5CC(=O)OC)C14O2 (configuration not stated) | > 100 |
| c1ccc2c3c(c(N4CCOCC4)nc2c1)CCCC3 | > 100 |
| O=C(Nc1ccccc1C(=O)NCCCO)/C(=C/c1ccccc1O)NC(=O)c1ccccc1 | > 64.6 |
| FC(F)(F)c1ccc2nc3n(c2c1)C(c1c(Cl)cccc1Cl)SC3 (configuration not stated) | 46.8 |
| CCC(=O)Oc1c2ccsc2c(OC(=O)CC)c2ccsc12 | 1.4 |
| NC(=O)c1cc2ccccc2o/c1=N/O | > 100 |
| COC(=O)C1CC2(c3ccccc3)C(=O)c3ccccc3N2O1 (configuration not stated) | > 100 |
| COc1cc2c(/C=C3/C(=O)Nc4ccccc43)c(Cl)[nH]c2cc1C | 12.6 |
| O=C(O)C(CO)NC(=O)n1c2ccccc2c2ccccc21 (configuration not stated) | > 100 |
| Brc1ccc2c(-c3csc(-c4c[nH]c5ccc(Br)cc45)n3)c[nH]c2c1 | 24.1 |
| Cc1c2ncccc2cc2oc3ccccc3c(=O)c12 | > 100 |
| CC1(C)OCC2OC3([C@H]4OC(C)(C)O[C@@H]4CO)OC(C)(C)OC3C2O1 (some centres not stated) | > 100 |
| O=C(Nc1cccc(O)c1)C(=O)C(C(=O)c1ccccc1F)C1OC(=O)c2ccccc21 (configuration not stated) | 30.5 |
| Clc1ccc(OCc2nnc(CCCCCCCCc3nnc(COc4ccc(Cl)cc4)n3Nc3ccccc3)n2Nc2ccccc2)cc1 | > 100 |

system: NCI-H460 lung; test: NCI tumour cell line growth inhibition, 48 h

| Compound | TGI [µM] |
| --- | --- |
| COc1ccc2c(c1)CN1C(=N2)CSC1c1ccccc1Cl (configuration not stated) | 32.7 |
| CC1(CNCc2ccccc2)CC(CCc2ccccc2)N(C(=O)c2ccc([N+](=O)[O-])cc2)C1Cc1ccc(O)cc1 (configuration not stated) | 30.8 |
| Cc1cc2[nH]c3c(C#N)c4c(c(=O)n3c2cc1C)CCCC4 | > 100 |
| O=C1CSC(c2cccs2)N1c1nc2cc3sc(N4C(=O)CSC4c4cccs4)nc3cc2s1 (configuration not stated) | > 50 |
| Cc1cn(C(C)OCCN2C(=O)c3ccccc3C2=O)c(=O)[nH]c1=O (configuration not stated) | > 100 |
| CCOC(=O)C1=C(OC(OCC)C(CC)[Se]c2ccccc2)CCCC1 (configuration not stated) | > 100 |
| NC(N)=NS(=O)(=O)c1ccc(NC(=O)c2ccc3nc4ccccc4c(Nc4ccc(S(=O)(=O)N=C(N)N)cc4)c3c2)cc1 | > 100 |
| COc1ccc2cc(NC(=O)N/N=C\c3ccc(Cl)cc3)ccc2c1 | > 100 |
| Brc1cc2nn(-c3ccccc3)nc2c2nonc12 | > 100 |
| CCOC(=O)C(NC(=O)CC(C)C)(N1CCN(c2cc3c(cc2F)c(=O)c(C(=O)O)cn3C2CC2)CC1)C(F)(F)F (configuration not stated) | > 100 |
| Cc1cn([C@@H]2C[C@H]2CO)c(=O)[nH]c1=O | > 100 |
| c1ccc(/C(=N/Nc2ccccn2)c2ncccn2)cc1 | > 57.8 |
| O=C1C=CC(=O)c2c(O)c(NCCc3ccc(O)cc3)c(Cl)c(O)c21 | > 10 |
| COc1cc(I)c2c3c1OC1C34CCN(C)C(C2)C4=CC(I)C1(OC)OC (configuration not stated) | 38.7 |
| NC(=O)C(=CNC(=S)c1ccncc1)C(N)=O | > 100 |
